Several values for one entry are separate records, joined by “and”; a condition that tells them apart may be missing. Identical values can stand only once. Toxic doses and inconclusive results are not listed. Cut-off read from the data, not from the text of the source: active = T/C of 150% or more; inactive = T/C below 125%.
Tested on: L1210 leukemia ip in BDF1 mice, survival T/C
Assay: NCI In Vivo Anticancer Drug Screen. Data for tumor model L1210 Leukemia (intraperitoneal) in B6D2F1 (BDF1) mice
Details: endpoint: mean survival time, higher = longer survival
Procedure, shortened: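 Read-out is survival time, reported as the treated-group measurement over the vehicle-control measurement.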

[1] = dose: 100.0 mg/kg/injection, schedule: Q01DX001 (ip), vehicle: carboxymethylcellulose (CMC)
[2] = dose: 200.0 mg/kg/injection, schedule: Q01DX001 (ip), vehicle: carboxymethylcellulose (CMC)
[3] = dose: 400.0 mg/kg/injection, schedule: Q01DX001 (ip), vehicle: carboxymethylcellulose (CMC)
[4] = dose: 100.0 mg/kg/injection, schedule: Q01DX009 (ip), vehicle: saline with Tween-80
[5] = dose: 100.0 mg/kg/injection, schedule: Q04DX003 (ip), vehicle: saline with Tween-80
[6] = dose: 200.0 mg/kg/injection, schedule: Q01DX009 (ip), vehicle: saline with Tween-80
[7] = dose: 200.0 mg/kg/injection, schedule: Q04DX003 (ip), vehicle: saline with Tween-80
[8] = dose: 400.0 mg/kg/injection, schedule: Q04DX003 (ip), vehicle: saline with Tween-80
[9] = dose: 100.0 mg/kg/injection, schedule: Q01DX009 (ip), vehicle: Klucel (hydroxypropylcellulose) (HPC)
[10] = dose: 100.0 mg/kg/injection, schedule: Q04DX003 (ip), vehicle: Klucel (hydroxypropylcellulose) (HPC)
[11] = dose: 200.0 mg/kg/injection, schedule: Q01DX009 (ip), vehicle: Klucel (hydroxypropylcellulose) (HPC)
[12] = dose: 200.0 mg/kg/injection, schedule: Q04DX003 (ip), vehicle: Klucel (hydroxypropylcellulose) (HPC)
[13] = dose: 400.0 mg/kg/injection, schedule: Q01DX009 (ip), vehicle: Klucel (hydroxypropylcellulose) (HPC)
[14] = dose: 400.0 mg/kg/injection, schedule: Q04DX003 (ip), vehicle: Klucel (hydroxypropylcellulose) (HPC)
[15] = dose: 6.25 mg/kg/injection, schedule: Q01DX009 (ip), vehicle: saline with Tween-80

Measured: T/C

C/C=C1\CCCCN(Cc2ccccc2)CCC1
inactive: dose: 75.0 mg/kg/injection, schedule: Q01DX001 (ip), vehicle: saline 104 % of control | dose: 150.0 mg/kg/injection, schedule: Q01DX001 (ip), vehicle: saline 98 % of control

CC1C(=O)NN=C1c1ccc([N+](=O)[O-])cc1 (configuration not stated)
inactive: [1] 100 % of control | [2] 100 % of control | [3] 94 % of control

CN(c1ccccc1)S(=O)(=O)c1ccccc1
inactive: [4] 100 % of control | [5] 97 % of control | [6] 106 % of control | [7] 97 % of control | dose: 400.0 mg/kg/injection, schedule: Q01DX009 (ip), vehicle: saline with Tween-80 90 % of control | [8] 92 % of control

COc1cc2ccc(C(C)NCC(=O)O)cc2cc1OC (configuration not stated)
inactive: [9] 100 % of control | [10] 93 % of control | [11] 100 % of control | [12] 90 % of control | [13] 94 % of control | [14] 90 % of control

COc1ccc(OCC(O)CN2CCN(c3ccc(Cl)cc3)CC2)cc1 (configuration not stated)
inactive: [5] 93 % of control | [7] 90 % of control | [8] 98 % of control

Cc1cc(C)c(NC(=O)Nc2cccc(F)c2)c(C)c1
inactive: [9] 96 % of control | dose: 100.0 mg/kg/injection, schedule: Q04DX002 (ip), vehicle: Klucel (hydroxypropylcellulose) (HPC) 98 % of control | [11] 105 % of control | dose: 200.0 mg/kg/injection, schedule: Q04DX002 (ip), vehicle: Klucel (hydroxypropylcellulose) (HPC) 102 % of control | dose: 400.0 mg/kg/injection, schedule: Q04DX002 (ip), vehicle: Klucel (hydroxypropylcellulose) (HPC) 102 % of control

Cc1ccccc1N=NN(C)C
inactive: [1] 106 % of control | [2] 106 % of control

C#CC(=O)OCC#CCOC(=O)C#C
inactive: dose: 1.56 mg/kg/injection, schedule: Q01DX009 (ip), vehicle: saline with Tween-80 111 % of control | dose: 3.12 mg/kg/injection, schedule: Q01DX009 (ip), vehicle: saline with Tween-80 101 % of control | [15] 87 % of control and 90 % of control

NNC(N)=S
inactive: dose: 3.13 mg/kg/injection, schedule: Q04DX003 (ip), vehicle: saline 109 % of control | dose: 6.25 mg/kg/injection, schedule: Q04DX003 (ip), vehicle: saline 104 % of control and 103 % of control | dose: 12.5 mg/kg/injection, schedule: Q04DX003 (ip), vehicle: saline 97 % of control and 100 % of control

Nc1nc(CBr)c(CCCCc2ccccc2)c(=O)[nH]1
inactive: dose: 37.5 mg/kg/injection, schedule: Q01DX001 (ip), vehicle: saline with Tween-80 100 % of control | dose: 75.0 mg/kg/injection, schedule: Q01DX001 (ip), vehicle: saline with Tween-80 101 % of control

Cc1cccc(C)c1OC(=O)NCCCCCCNC(=O)Oc1c(C)cccc1C
inactive: [9] 102 % of control | [11] 92 % of control | [13] 92 % of control

CC1(C)OC(COC(=O)c2ccccc2)C2OC(C)(C)OC(COC(=O)c3ccccc3)C2O1 (configuration not stated)
inactive: [1] 93 % of control | [2] 90 % of control | [3] 95 % of control

COc1ccc(OC)c(-c2nnc(Nc3ccc(S(=O)(=O)N4CCCCC4)cc3)s2)c1
inactive: [9] 94 % of control | [11] 91 % of control | [13] 91 % of control

COc1cc(OC)c(/C=C/c2ccc3ccccc3[n+]2[O-])c(OC)c1
inactive: dose: 100.0 mg/kg/injection, schedule: Q04DX002 (ip), vehicle: gum acacia 95 % of control | dose: 200.0 mg/kg/injection, schedule: Q04DX002 (ip), vehicle: gum acacia 95 % of control | dose: 400.0 mg/kg/injection, schedule: Q04DX002 (ip), vehicle: gum acacia 100 % of control

Cc1c(C)c(C)c(CSC(N)=Nc2ccccc2)c(C)c1C
inactive: dose: 50.0 mg/kg/injection, schedule: Q01DX009 (ip), vehicle: saline with Tween-80 98 % of control | [4] 102 % of control | [6] 102 % of control

O=C1CCCc2c1[nH]c1ccccc21
inactive: [5] 97 % of control | [7] 98 % of control | [8] 98 % of control

CN1CCC(CCOCc2ccccc2)(CN2c3ccccc3Sc3ccccc32)C1 (configuration not stated)
inactive: [15] 93 % of control | dose: 12.5 mg/kg/injection, schedule: Q01DX009 (ip), vehicle: saline with Tween-80 98 % of control | dose: 25.0 mg/kg/injection, schedule: Q01DX009 (ip), vehicle: saline with Tween-80 93 % of control

COc1ccc([N+](=O)[O-])cc1NC(=O)Oc1ccc(F)cc1
inactive: dose: 50.0 mg/kg/injection, schedule: Q01DX009 (ip), vehicle: Klucel (hydroxypropylcellulose) (HPC) 100 % of control | [9] 92 % of control | [11] 96 % of control

CN(C(=O)c1ccc(C(=N)N)cc1)c1ccccc1
inactive: dose: 100.0 mg/kg/injection, schedule: Q01DX001 (ip), vehicle: saline with Tween-80 100 % of control | dose: 200.0 mg/kg/injection, schedule: Q01DX001 (ip), vehicle: saline with Tween-80 100 % of control

CCCOc1cccc(N)c1
inactive: dose: 50.0 mg/kg/injection, schedule: Q01DX001 (ip), vehicle: saline 96 % of control | dose: 100.0 mg/kg/injection, schedule: Q01DX001 (ip), vehicle: saline 91 % of control | dose: 200.0 mg/kg/injection, schedule: Q01DX001 (ip), vehicle: saline 93 % of control

Cc1cc(N(CCCCl)CCCCl)ccc1C=Nc1cccc(Cl)c1
inactive: [10] 101 % of control | [12] 101 % of control | [14] 96 % of control

Source: PubChem BioAssay AID248 (DTP/NCI, 2004)
